Tested on: K24384-001-R-PDC complex spheroids, viability
Experiment: Anticancer human tumor K24384-001-R-PDC patient-derived pancreatic adenocarcinoma cell line growth inhibition [GQUAD]
Conditions: for IC50: curve of first compound; for viability, T/C: stronger effect = lower value
Source text: DNA G-quadruplex Stabilizer Agents in Combinations in Complex Spheroids
A high-throughput screen of multi-cell type tumor spheroids was designed to identify active combinations of DNA G-quadruplex stabilizer agents and targeted small molecules. Complex spheroids include a stromal component modeled by human endothelial cells (HUVEC) and fibroblasts modeled by human mesenchymal stem cells (MSCs). The concentration ranges selected for each drug and investigational agent were based upon clinically achievable concentrations if the clinical Cmax of the agent was known.
Compounds. The drugs and investigational agents: pidnarulex (CX-5461; NSC782164), APTO-253 (NSC789042), BRACO-19 (NSC847499), peposertib (NSC802822), ceralasertib (NSC780249), elimusertib (NSC800525), camonsertib (NSC841442), AZD-1390 (NSC803789), olaparib (NSC753686), talazoparib (NSC767125), ART-558 (NSC835418), sotorasib (NSC818433), MRTX-1133 (NSC836407), SN-38 (NSC673596), topotecan (NSC609699), etoposide (NSC141540), doxorubicin (NSC123127), gemcitabine (NSC613327), 5-fluorouracil (NSC19893), paclitaxel (NSC125973), vemurafenib (NSC761431), panobinostat (NSC761190), R-306465 (JNJ-16241199; NSC773264), adavosertib (NSC754352), TP-3654 (NSC805149), carboplatin (NSC241240), KSQ-4279 (NSC840948), and staurosporine (NSC755774) were obtained from the National Cancer Institute (NCI) Developmental Therapeutics Program Chemical Repository (34). The FDA-approved anticancer drug set is available from the NCI Developmental Therapeutics Program. […] The stock solutions were prepared in dimethyl sulfoxide (DMSO, Sigma-Aldrich, St. Louis, MO, cat. D2650) at 800-fold the tested concentration and stored at -70 degrees C prior to their use. All drugs and investigational agents were tested over a range starting from a high concentration at or near the clinical Cmax and decreasing in half-log increments. If the clinical Cmax for an agent had not been determined, the highest concentration tested was 10 microM.
2.3 Cell Culture. All cells were maintained in an incubator at 37 degrees C and 5% CO2 with 95% humidity. The PDC lines were cultured according to standard operating procedures established by the NCI PDMR. All PDCs were thawed and cultured in Matrigel-coated flasks prepared with a working solution of 1X Ham's F-12 nutrient mix, without supplementation (Invitrogen, cat. 11765054), 100 U/mL penicillin-streptomycin (Invitrogen, cat. 15140122), and 2.5% Matrigel (Corning Inc., cat. 354248) for the first three passages. The 857933-349-R-J2-PDC line was cultured in 6C/Colon 1B media, which includes advanced DMEM/F-12 (Thermo Fisher Scientific, cat. 12634028), 10 mM HEPES (Thermo Fisher Scientific, cat. 15630080), 1X GlutaMAX supplement (Thermo Fisher Scientific, cat. 35050061), 0.1 mg/mL primocin (InvivoGen, cat. ant-pm-2), 10% defined fetal bovine serum, heat inactivated (HyClone Laboratories Inc., cat. SH30070.03HI), 50% L-WRN conditioned media (ATCC, cat. CRL-3276), 1.25 mM N-Acetyl-L-cysteine (Sigma-Aldrich, cat. A9165), 10 mM nicotinamide (Sigma-Aldrich, cat. N0636), 1X B-27 supplement (Thermo Fisher Scientific, cat. 17504044), 1X N-2 supplement (Thermo Fisher Scientific, cat. 17502048), 10 microM Y-27632 dihydrochloride (Tocris Bioscience, cat. 1254), and 50 ng/mL human EGF recombinant protein (Thermo Fisher Scientific, cat. PHG0311). The 485176-168-R4-J1-PDC line was cultured in Panc media, which includes all 6C/Colon 1B media components plus 100 ng/mL human FGF-10 (Thermo Fisher Scientific, cat. 100-26), 500 nM SB-431542 (Selleckchem, cat. S1067), and gastrin (Tocris, cat. 3006).
[…]

[1] = second compound 0.0316 µM, first compound 0.0316 µM
[2] = second compound 0.0316 µM, first compound 0.1 µM
[3] = second compound 0.0316 µM, first compound 0.316 µM
[4] = second compound 0.0316 µM, first compound 1 µM
[5] = second compound 0.0316 µM, first compound 3.16 µM
[6] = second compound 0.0316 µM, first compound 10 µM
[7] = second compound 0.1 µM, first compound 0.0316 µM
[8] = second compound 0.1 µM, first compound 0.1 µM
[9] = second compound 0.1 µM, first compound 0.316 µM
[10] = second compound 0.1 µM, first compound 1 µM
[11] = second compound 0.1 µM, first compound 3.16 µM
[12] = second compound 0.1 µM, first compound 10 µM
[13] = second compound 0.316 µM, first compound 0.0316 µM
[14] = second compound 0.316 µM, first compound 0.1 µM
[15] = second compound 0.316 µM, first compound 0.316 µM
[16] = second compound 0.316 µM, first compound 1 µM
[17] = second compound 0.316 µM, first compound 3.16 µM
[18] = second compound 0.316 µM, first compound 10 µM
[19] = second compound 1 µM, first compound 0.0316 µM
[20] = second compound 1 µM, first compound 0.1 µM
[21] = second compound 1 µM, first compound 0.316 µM
[22] = second compound 1 µM, first compound 1 µM
[23] = second compound 1 µM, first compound 3.16 µM
[24] = second compound 1 µM, first compound 10 µM
[25] = second compound 3.16 µM, first compound 0.0316 µM
[26] = second compound 3.16 µM, first compound 0.1 µM
[27] = second compound 3.16 µM, first compound 0.316 µM
[28] = second compound 3.16 µM, first compound 1 µM
[29] = second compound 3.16 µM, first compound 3.16 µM
[30] = second compound 3.16 µM, first compound 10 µM
[31] = second compound 10 µM, first compound 0.0316 µM
[32] = second compound 10 µM, first compound 0.1 µM
[33] = second compound 10 µM, first compound 0.316 µM
[34] = second compound 10 µM, first compound 1 µM
[35] = second compound 10 µM, first compound 3.16 µM
[36] = second compound 10 µM, first compound 10 µM
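Note: spheroids exposed to compounds for seven days.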

## C=CC(=O)N1CCN(c2nc(=O)n(-c3c(C)ccnc3C(C)C)c3nc(-c4c(O)cccc4F)c(F)cc23)C(C)C1 (stereo unspecified) + Cc1[nH]c2ccc(F)cc2c1-c1nc2c3cccnc3c3ncccc3c2[nH]1
Second compound 0.0316 µM
  IC50: > 10000 nM
Second compound 0.1 µM
  IC50: > 10000 nM
Second compound 0.316 µM
  IC50: > 10000 nM
Second compound 1 µM
  IC50: > 10000 nM
Second compound 3.16 µM
  IC50: > 10000 nM
Second compound 10 µM
  IC50: > 10000 nM
[1]
  viability, T/C: 111%
[2]
  viability, T/C: 78.9%
[3]
  viability, T/C: 104%
[4]
  viability, T/C: 101%
[5]
  viability, T/C: 111%
[6]
  viability, T/C: 88.3%
[7]
  viability, T/C: 96%
[8]
  viability, T/C: 96.8%
[9]
  viability, T/C: 95%
[10]
  viability, T/C: 117%
[11]
  viability, T/C: 106%
[12]
  viability, T/C: 77.4%
[13]
  viability, T/C: 110%
[14]
  viability, T/C: 92.8%
[15]
  viability, T/C: 95.2%
[16]
  viability, T/C: 119%
[17]
  viability, T/C: 101%
[18]
  viability, T/C: 83.3%
[19]
  viability, T/C: 92.8%
[20]
  viability, T/C: 105%
[21]
  viability, T/C: 99.5%
[22]
  viability, T/C: 103%
[23]
  viability, T/C: 96.2%
[24]
  viability, T/C: 70.1%
[25]
  viability, T/C: 71.7%
[26]
  viability, T/C: 74.8%
[27]
  viability, T/C: 71.2%
[28]
  viability, T/C: 84.4%
[29]
  viability, T/C: 79.2%
[30]
  viability, T/C: 67.1%
[31]
  viability, T/C: 66%
[32]
  viability, T/C: 63.7%
[33]
  viability, T/C: 65.7%
[34]
  viability, T/C: 72.3%
[35]
  viability, T/C: 80.5%
[36]
  viability, T/C: 60.8%

## CC1COCCN1c1cc(C2(S(C)(=N)=O)CC2)nc(-c2ccnc3[nH]ccc23)n1 (stereo unspecified) + Cc1[nH]c2ccc(F)cc2c1-c1nc2c3cccnc3c3ncccc3c2[nH]1
Second compound 0.0316 µM
  IC50: 1610 nM
Second compound 0.1 µM
  IC50: 1710 nM
Second compound 0.316 µM
  IC50: 1500 nM
Second compound 1 µM
  IC50: 1990 nM
Second compound 3.16 µM
  IC50: 2040 nM
Second compound 10 µM
  IC50: 1250 nM
[1]
  viability, T/C: 82.5%
[2]
  viability, T/C: 94.6%
[3]
  viability, T/C: 112%
[4]
  viability, T/C: 64.2%
[5]
  viability, T/C: 37.2%
[6]
  viability, T/C: 22.6%
[7]
  viability, T/C: 87.1%
[8]
  viability, T/C: 95.7%
[9]
  viability, T/C: 107%
[10]
  viability, T/C: 66.6%
[11]
  viability, T/C: 34.6%
[12]
  viability, T/C: 27.5%
[13]
  viability, T/C: 81.6%
[14]
  viability, T/C: 85.5%
[15]
  viability, T/C: 101%
[16]
  viability, T/C: 58.8%
[17]
  viability, T/C: 38.5%
[18]
  viability, T/C: 29.2%
[19]
  viability, T/C: 87.5%
[20]
  viability, T/C: 84.1%
[21]
  viability, T/C: 87.1%
[22]
  viability, T/C: 63.6%
[23]
  viability, T/C: 41.5%
[24]
  viability, T/C: 31.6%
[25]
  viability, T/C: 71.6%
[26]
  viability, T/C: 72.6%
[27]
  viability, T/C: 72.9%
[28]
  viability, T/C: 61%
[29]
  viability, T/C: 43%
[30]
  viability, T/C: 26%
[31]
  viability, T/C: 56.5%
[32]
  viability, T/C: 64.4%
[33]
  viability, T/C: 58.5%
[34]
  viability, T/C: 54.3%
[35]
  viability, T/C: 32.5%
[36]
  viability, T/C: 16.5%

## COc1ccc([C@@H](O)c2cc(-c3ncnc4cc(N5CCOCC5)ccc34)c(F)cc2Cl)nn1 + Cc1[nH]c2ccc(F)cc2c1-c1nc2c3cccnc3c3ncccc3c2[nH]1
Second compound 0.0316 µM
  IC50: 2990 nM
Second compound 0.1 µM
  IC50: 2480 nM
Second compound 0.316 µM
  IC50: 4280 nM
Second compound 1 µM
  IC50: 3380 nM
Second compound 3.16 µM
  IC50: 2100 nM
Second compound 10 µM
  IC50: 1690 nM
[1]
  viability, T/C: 100%
[2]
  viability, T/C: 89.6%
[3]
  viability, T/C: 68.3%
[4]
  viability, T/C: 64.6%
[5]
  viability, T/C: 49.1%
[6]
  viability, T/C: 38.6%
[7]
  viability, T/C: 79.7%
[8]
  viability, T/C: 95.4%
[9]
  viability, T/C: 92.7%
[10]
  viability, T/C: 73%
[11]
  viability, T/C: 44.5%
[12]
  viability, T/C: 31.9%
[13]
  viability, T/C: 101%
[14]
  viability, T/C: 115%
[15]
  viability, T/C: 99.4%
[16]
  viability, T/C: 66.8%
[17]
  viability, T/C: 65.1%
[18]
  viability, T/C: 28.4%
[19]
  viability, T/C: 81.7%
[20]
  viability, T/C: 99.5%
[21]
  viability, T/C: 83.9%
[22]
  viability, T/C: 67.1%
[23]
  viability, T/C: 54.1%
[24]
  viability, T/C: 30.3%
[25]
  viability, T/C: 87.9%
[26]
  viability, T/C: 76.8%
[27]
  viability, T/C: 58%
[28]
  viability, T/C: 73.5%
[29]
  viability, T/C: 41.7%
[30]
  viability, T/C: 19.3%
[31]
  viability, T/C: 48.7%
[32]
  viability, T/C: 85.9%
[33]
  viability, T/C: 58.9%
[34]
  viability, T/C: 66.3%
[35]
  viability, T/C: 32.3%
[36]
  viability, T/C: 15.8%
